Biological target: Reverse transcriptase/RNaseH (Human immunodeficiency virus 1, UniProt Q72547)
Assay: Ability to inhibit the HIV-1 reverse transcriptase in cord blood mononuclear cells.

IC50: 30 nM
Structure (SMILES): Cc1cn([C@H]2C[C@H](N=[N+]=[N-])[C@@H](CO)O2)c(=O)[nH]c1=O [1-((2R,4S,5S)-4-Azido-5-hydroxymethyl-tetrahydro-furan-2-yl)-5-methyl-1H-pyrimidine-2,4-dione]
